Each block holds one molecule with its values, some of them ahead of it. Calls of active or inactive are those of the source. The calls are words filed in the database; no cut-off is given here.
Key:
[1] = Plasma concentration in C215 transfected MC38 cells implanted C57BL/6 mouse at 1 mg/kg, iv dosed as cassette formulation and measured at 1 hr after post dose by LC-MS analysis; type: ADME, organism-based
[2] = Plasma concentration in C215 transfected MC38 cells implanted C57BL/6 mouse at 5 mg/kg, po dosed as cassette formulation and measured at 7 hrs after post dose by LC-MS analysis; type: ADME, organism-based
[3] = Plasma concentration in C215 transfected MC38 cells implanted C57BL/6 mouse at 5 mg/kg, po dosed as cassette formulation and measured at 2 hrs after post dose by LC-MS analysis; type: ADME, organism-based
[4] = Plasma concentration in C215 transfected MC38 cells implanted C57BL/6 mouse assessed as N-(5-bromo-3-hydroxypyrazin-2-yl)-1-(3,4-dichlorophenyl)methanesulfonamide level at 5 mg/kg, po dosed as cassette formulation and measured at 1 hr after post dose by LC-MS analysis; type: ADME, organism-based; settings: in vivo
[5] = Plasma concentration in C215 transfected MC38 cells implanted C57BL/6 mouse at 1 mg/kg, iv dosed as cassette formulation and measured at 2 hrs after post dose by LC-MS analysis; type: ADME, organism-based
[6] = Plasma concentration in C215 transfected MC38 cells implanted C57BL/6 mouse at 1 mg/kg, iv dosed as cassette formulation and measured at 0.5 hrs after post dose by LC-MS analysis; type: ADME, organism-based
[7] = Plasma concentration in C215 transfected MC38 cells implanted C57BL/6 mouse assessed as N-(5-bromo-3-hydroxypyrazin-2-yl)-1-(3,4-dichlorophenyl)methanesulfonamide level at 1 mg/kg, iv dosed as cassette formulation and measured at 0.083 hrs after post dose by LC-MS analysis; type: ADME, organism-based; settings: in vivo
[8] = Plasma concentration in C215 transfected MC38 cells implanted C57BL/6 mouse assessed as N-(5-bromo-3-hydroxypyrazin-2-yl)-1-(3,4-dichlorophenyl)methanesulfonamide level at 1 mg/kg, iv dosed as cassette formulation and measured at 7 hrs after post dose by LC-MS analysis; type: ADME, organism-based; settings: in vivo
[9] = Plasma concentration in C215 transfected MC38 cells implanted C57BL/6 mouse assessed as N-(5-bromo-3-hydroxypyrazin-2-yl)-1-(3,4-dichlorophenyl)methanesulfonamide level at 5 mg/kg, po dosed as cassette formulation and measured at 4 hrs after post dose by LC-MS analysis; type: ADME, organism-based; settings: in vivo
[10] = Plasma concentration in C215 transfected MC38 cells implanted C57BL/6 mouse at 5 mg/kg, po dosed as cassette formulation and measured at 1 hr after post dose by LC-MS analysis; type: ADME, organism-based
[11] = Plasma concentration in C215 transfected MC38 cells implanted C57BL/6 mouse at 5 mg/kg, po dosed as cassette formulation and measured at 0.5 hrs after post dose by LC-MS analysis; type: ADME, organism-based
[12] = Plasma concentration in C215 transfected MC38 cells implanted C57BL/6 mouse at 5 mg/kg, po dosed as cassette formulation and measured at 4 hrs after post dose by LC-MS analysis; type: ADME, organism-based
[13] = Plasma concentration in C215 transfected MC38 cells implanted C57BL/6 mouse assessed as N-(5-bromo-3-hydroxypyrazin-2-yl)-1-(3,4-dichlorophenyl)methanesulfonamide level at 5 mg/kg, po dosed as cassette formulation and measured at 7 hrs after post dose by LC-MS analysis; type: ADME, organism-based; settings: in vivo
[14] = Plasma concentration in C215 transfected MC38 cells implanted C57BL/6 mouse assessed as N-(5-bromo-3-hydroxypyrazin-2-yl)-1-(3,4-dichlorophenyl)methanesulfonamide level at 1 mg/kg, iv dosed as cassette formulation and measured at 1 hr after post dose by LC-MS analysis; type: ADME, organism-based; settings: in vivo
[15] = Plasma concentration in C215 transfected MC38 cells implanted C57BL/6 mouse assessed as N-(5-bromo-3-hydroxypyrazin-2-yl)-1-(3,4-dichlorophenyl)methanesulfonamide level at 5 mg/kg, po dosed as cassette formulation and measured at 0.5 hrs after post dose by LC-MS analysis; type: ADME, organism-based; settings: in vivo
[16] = Plasma concentration in C215 transfected MC38 cells implanted C57BL/6 mouse at 1 mg/kg, iv dosed as cassette formulation and measured at 4 hrs after post dose by LC-MS analysis; type: ADME, organism-based
[17] = Plasma concentration in C215 transfected MC38 cells implanted C57BL/6 mouse at 1 mg/kg, iv dosed as cassette formulation and measured at 7 hrs after post dose by LC-MS analysis; type: ADME, organism-based
[18] = Plasma concentration in C215 transfected MC38 cells implanted C57BL/6 mouse assessed as N-(5-bromo-3-hydroxypyrazin-2-yl)-1-(3,4-dichlorophenyl)methanesulfonamide level at 1 mg/kg, iv dosed as cassette formulation and measured at 4 hrs after post dose by LC-MS analysis; type: ADME, organism-based; settings: in vivo
[19] = Plasma concentration in C215 transfected MC38 cells implanted C57BL/6 mouse assessed as N-(5-bromo-3-hydroxypyrazin-2-yl)-1-(3,4-dichlorophenyl)methanesulfonamide level at 1 mg/kg, iv dosed as cassette formulation and measured at 2 hrs after post dose by LC-MS analysis; type: ADME, organism-based; settings: in vivo
[20] = Plasma concentration in C215 transfected MC38 cells implanted C57BL/6 mouse assessed as N-(5-bromo-3-hydroxypyrazin-2-yl)-1-(3,4-dichlorophenyl)methanesulfonamide level at 5 mg/kg, po dosed as cassette formulation and measured at 2 hrs after post dose by LC-MS analysis; type: ADME, organism-based; settings: in vivo
[21] = Plasma concentration in C215 transfected MC38 cells implanted C57BL/6 mouse at 1 mg/kg, iv dosed as cassette formulation and measured at 0.083 hrs after post dose by LC-MS analysis; type: ADME, organism-based
[22] = Plasma concentration in C215 transfected MC38 cells implanted C57BL/6 mouse assessed as N-(5-bromo-3-hydroxypyrazin-2-yl)-1-(3,4-dichlorophenyl)methanesulfonamide level at 1 mg/kg, iv dosed as cassette formulation and measured at 0.5 hrs after post dose by LC-MS analysis; type: ADME, organism-based; settings: in vivo
MC-38 = experiment: Antitumor activity against C215 transfected MC38 cells implanted in C57BL/6 mouse assessed as inhibition of tumor growth at 30 mg/kg, po dosed daily for 16 days starting following day of tumor inoculation; type: functional, organism-based

concentration at 1 h [1]: 17.5 µM
concentration at 7 h [2]: 73.5 µM
concentration at 2 h [3]: 78.9 µM
concentration [4]: 0.86 µM
concentration at 2 h [5]: 14.9 µM
concentration at 0.5 h [6]: 16.8 µM
concentration [7]: 0.12 µM
concentration [8]: 0.2 µM
concentration [9]: 0.63 µM
concentration at 1 h [10]: 69.4 µM
concentration at 0.5 h [11]: 51.7 µM
concentration at 4 h [12]: 59.4 µM
concentration [13]: 1.1 µM
concentration [14]: 0.32 µM
concentration [15]: 0.57 µM
concentration at 4 h [16]: 9.2 µM
concentration at 7 h [17]: 6.2 µM
concentration [18]: 0.21 µM
concentration [19]: 0.32 µM
concentration [20]: 0.8 µM
concentration at 0.083 h [21]: 25.2 µM
concentration [22]: 0.32 µM
Compound: COc1nc(Br)cnc1NS(=O)(=O)Cc1ccc(Cl)c(Cl)c1

Compound: COc1ncc(S(=O)(=O)Nc2cncc(Cl)c2O)cc1Br
TGI (MC-38): Active

— ChEMBL document CHEMBL4418490, “N-(heteroaryl)-sulfonamide derivatives useful as s100-inhibitors” (2018)
